From patent US12577217B2, “15-PGDH inhibitor” (KYORIN Pharmaceutical Co., Ltd., priority 2019, dated 2026)

Target: T1, recombinant human 15-PGDH (Homo sapiens, UniProt P15428)
T1 construct: purchased R&D Systems
T1 sequence (P15428 1-266): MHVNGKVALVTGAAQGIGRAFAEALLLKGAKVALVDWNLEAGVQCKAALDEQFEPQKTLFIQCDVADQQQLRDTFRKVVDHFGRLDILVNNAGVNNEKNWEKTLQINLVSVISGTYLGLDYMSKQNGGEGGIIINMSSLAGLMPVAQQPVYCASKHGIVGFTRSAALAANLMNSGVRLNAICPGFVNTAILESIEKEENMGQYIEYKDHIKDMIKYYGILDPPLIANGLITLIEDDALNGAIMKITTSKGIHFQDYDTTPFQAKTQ
Experiment: 15-PGDH enzyme inhibition test
Assay type: biochemical
Conditions: 4 nM recombinant human 15-PGDH, 30 μM PGE2, 1 mM NAD+, 60 minutes after starting the reaction; read-out: IC50 Value
Protocol: 15-PGDH Enzyme Inhibition Test
A test compound and 4 nM recombinant human 15-PGDH (R&D Systems) were added, in 50 mM Tris-HCl (pH 8.0) containing 0.01% TWEEN 20 (Sigma) and 0.01% bovine gamma globulin (Sigma), to a 384-well Flat Bottom Black plate (Corning, 3820), and the resultant was allowed to stand still at room temperature for 12 minutes, and 30 μM PGE2 (Cayman Chemical) and 1 mM NAD+ (Sigma) were added thereto to start the reaction. 60 minutes after starting the reaction, measurement was performed using Synergy 2 (BioTeck) at an excitation wavelength of 340 nm and a fluorescence wavelength of 440 nm. Assuming that a fluorescence signal obtained with an assay buffer added instead of the test compound and NAD+ was 100% and that a signal obtained with NAD+ added was 0%, a concentration corresponding to 50% inhibition plotted on a concentration-reaction curve of the test compound was defined as an IC50 value. Incidentally, in the following tables, an IC50 value smaller than 10 nM was shown as +++, an IC50 value equal to or larger than 10 nM and smaller than 100 nM was shown as ++, and an IC50 value equal to or larger than 100 nM was shown as +.

SMILES | IC50 [nM]
C[C@@H]1COc2cc(C(=O)N3CCCCC3)ccc2N(c2ccc(C(=O)O)cc2)C1 [Example 2-11] | < 10
CN1Cc2cc(N3CCCc4cc(C(=O)N5CCC(F)(F)CC5)cnc43)cnc2C1=O [Example 1-84] | < 10
O=C(O)Cn1nc2cc(N3CCOc4cc(C(=O)N5CCCCC5)cnc43)ccn2c1=O [Example 2-23] | < 10
O=C(O)c1cccc(N2CCOc3cc(C(=O)N4CCCCC4)ccc32)c1 [Example 2-31] | < 10
CCn1nc2cc(N3CCCc4cc(C(=O)N5CCC(F)(F)CC5)cnc43)ccn2c1=O [Example 1-75] | < 10
CN1CCN(c2ccc(C(=O)O)cc2)c2ncc(C(=O)N3CCCCC3)cc21 [Example 4-21] | < 10
COc1cc(N2CCOc3cc(C(=O)N4CC=CCC4)ccc32)ccc1C(N)=O [Example 5-1, 2-Methoxy-4-(7-(1,2,3,6-tetrahydropyridine-1-carbonyl)-2,3-dihydro-4H-benzo[b][1,4]oxazin-4-yl)benzamide] | < 10
COC(=O)c1ccc(N2CCc3cc(C(=O)N4CCCCC4)ccc32)cc1 [Example 1-140] | < 10
O=C(c1cnc2c(c1)OCCN2c1ccn2c(=O)n(Cc3ccncc3)nc2c1)N1CCCCC1 [Example 1-34] | < 10
COCCn1nc2cc(N3CCOc4cc(C(=O)N5CCCCC5)cnc43)ccn2c1=O [Example 1-28] | < 10
Cn1nc2cc(N3CCOc4cc(SC5CCCCC5)cnc43)ccn2c1=O [Example 1-110] | < 10
Cn1cnc2cc(N3CCCc4cc(C(=O)N5CCC(F)(F)CC5)cnc43)ccc2c1=O [Example 1-88] | < 10
COCCOCCn1nc2cc(N3CCCc4cc(C(=O)N5CCCCC5)cnc43)ccn2c1=O [Example 1-71] | < 10
O=C(c1cnc2c(c1)CCCN2c1ccn2c(=O)[nH]nc2c1)N1CCC[C@@H](CF)C1 [Example 1-146] | < 10
CCCCn1nc2cc(N3CCOc4cc(C(=O)N5CCCCC5)cnc43)ccn2c1=O [Example 1-216] | < 10
CN1CCN(C(=O)c2cnc3c(c2)OCCN3c2ccc(C(=O)O)cc2)CC1 [Example 4-11] | 10 to 100

Further lines, results first:

IC50 [nM] | SMILES
< 10 | C[C@H]1CCN(C(=O)c2cnc3c(c2)OCCN3c2ccn3c(=O)n(C)nc3c2)C1 [Example 8-35]
10 to 100 | CNC(=O)C1CCC(N2CCOc3cc(C(=O)N4CCCCC4)ccc32)CC1 (stereo not drawn) [Example 6-16]
> 100 | Cn1nc2cc(N3CCOc4cc(C(=O)N5CCC[C@@H]5C(N)=O)cnc43)ccn2c1=O [Example 36-2]
< 10 | Cn1nc2cc(N3CCOc4cc(C(=O)N5CCCC(C)(F)C5)cnc43)ccn2c1=O (stereo not drawn) [Example 8-48]
10 to 100 | CC(O)CCN(C)C(=O)c1cnc2c(c1)OCCN2c1ccn2c(=O)n(C)nc2c1 (stereo not drawn) [Example 8-181]
< 10 | Cn1nc2cc(N3CCOc4cc(C(=O)N5CCOC6(CC6)C5)cnc43)ccn2c1=O [Example 8-49]
< 10 | Cn1nc2cc(N3CCOc4cc(C(=O)N5CCC(O)CC5)cnc43)ccn2c1=O [Example 8-230]
< 10 | CN(CC1CCCC1)C(=O)c1cnc2c(c1)OCCN2c1ccn2c(=O)n(C)nc2c1 [Example 17-3]
< 10 | CN1Cc2cc(N3CCOc4cc(C(=O)N5CCCC(F)(F)C5)cnc43)ccc2C1=O [Example 8-201]
10 to 100 | Cn1nc2cc(N3CCCc4cc(C(=O)N5CCC[C@@H](C(F)(F)F)C5)cnc43)ccn2c1=O [Example 8-145]
< 10 | COC(=O)c1ccc2cc(N3CCOc4cc(C(=O)N5CCCCC5)cnc43)nn2c1 [Example 11-6]
< 10 | O=C(c1cnc2c(c1)OCCN2c1ccn2c(=O)n(-c3ccccc3)nc2c1)N1CCCCC1 [Example 21-1, 2-Phenyl-7-(7-(piperidine-1-carbonyl)-2,3-dihydro-4H-pyrido[3,2-b] [1,4]oxazin-4-yl)-[1,2,4]triazolo[4,3-a]pyridin-3 (2H)-one]
> 100 | COC(=O)c1ccc2nc(N3CCOc4cc(C(=O)N5CCCCC5)cnc43)cn2c1 [Example 11-5]
> 100 | CNC(=O)c1ccc(N2CCOc3cc(C(=O)N4CCCCC4)cnc32)c(C)c1 [Example 6-13]
